In article PMC2877487 (Bioorganic & medicinal chemistry letters, 2009):
Read-outs that look alike come from different tables or passages of the source.

How the values were obtained:
[1] = Stability by HPLC peak area decrease, first order decay half-life; type: physicochemical; conditions: culture media, First order decay half-life (t1/2)
[2] = buffer; cited from earlier work

Compound C[C@@]12c3ccc4c(c3C(=O)c3occ(c31)C(=O)C[C@H]2OC(=O)CCC(=O)O)CCC4=O [SA-Dmv] has a half-life [1] of less than 1 min.

In the case of COC[C@H]1OC(=O)c2coc3c2[C@@]1(C)C1=C(C3=O)[C@@H]2CCC(=O)[C@@]2(C)C[C@H]1OC(C)=O [Wm, wortmannin], the half-life [1] is given as less than 1 min and the half-life [2] is given as 57.8 h.
